Measurements taken from patent US9822114B2, “Tricyclic oxazolidinone antibiotic compounds” (Idorsia Pharmaceuticals Ltd, priority 2008, dated 2017).
In brackets after ≈: the same amount, converted by molar mass.

System: M. catarrhalis A894
Experiment: Minimal inhibitory concentration (MIC), microdilution method in cation-adjusted Mueller-Hinton Broth (CLSI M7-A7)
Assay type: cell-based
Conditions: strain A894; for MIC: Moraxella catarrhalis
Description: Minimal inhibitory concentrations (MICs; mg/1) were determined in cation-adjusted Mueller-Hinton Broth by a microdilution method following the description given in “Methods for Dilution Antimicrobial Susceptibility Tests for Bacteria that Grow Aerobically”, Approved standard, 7th ed., Clinical and Laboratory Standards Institute (CLSI) Document M7-A7, Wayne, Pa., USA, 2006.

| Compound | MIC | MIC for M. catarrhalis A894 |
| --- | --- | --- |
| O=C1CSc2ccc(N3C[C@@H](CCCNC4Cn5c(=O)ccc6cccc4c65)OC3=O)cc2N1 (mixture of isomers) [Example 35, (RS)-1-{3-[(R)-2-oxo-3-(3-oxo-3,4-dihydro-2H-benzo[1,4]thiazin-6-yl)-oxazolidin-5-yl]-propylamino}-1,2-dihydro-pyrrolo[3,2,1-ij]quinolin-4-one] | ≤ 0.031 µg/mL | – |
| CCCc1ccc(N2C[C@@H](CNCC3Cn4c(=O)ccc5ccc(F)c3c54)OC2=O)cc1 (mixture of isomers) [Example 37, (RS)-9-fluoro-1-({[(R)-2-oxo-3-(4-propyl-phenyl)-oxazolidin-5-ylmethyl]-amino}-methyl)-1,2-dihydro-pyrrolo[3,2,1-ij]quinolin-4-one] | 1 µg/mL | – |
| O=C1COc2ccc(N3C[C@@H](CCCN[C@@H]4Cn5c(=O)ccc6cccc4c65)OC3=O)cc2N1 [Example 73, (S)-1-{3-[(R)-2-oxo-3-(3-oxo-3,4-dihydro-2H-benzo[1,4]oxazin-6-yl)-oxazolidin-5-yl]-propylamino}-1,2-dihydro-pyrrolo[3,2,1-ij]quinolin-4-one] | ≤ 0.031 µg/mL | – |
| O=C1O[C@H](CNCCC2Cn3c(=O)ccc4ccc(F)c2c43)CN1c1ccc2c(c1)OCCO2 (mixture of isomers) [Example 7, (1RS)-1-(2-{[(R)-3-(2,3-dihydro-benzo[1,4]dioxin-6-yl)-2-oxo-oxazolidin-5-ylmethyl]-amino}-ethyl)-9-fluoro-1,2-dihydro-pyrrolo[3,2,1-ij]quinolin-4-one] | ≤ 0.031 µg/mL | – |
| COC(=O)[C@H]1[C@H](NCCC[C@@H]2CN(c3ccc4c(c3)NC(=O)CS4)C(=O)O2)c2c(F)ccc3ccc(=O)n1c23 (relative stereo) [Example 181, (1R*,2R*)-9-fluoro-4-oxo-1-{3-[(R)-2-oxo-3-(3-oxo-3,4-dihydro-2H-benzo[1,4]thiazin-6-yl)-oxazolidin-5-yl]-propylamino}-1,2-dihydro-4H-pyrrolo[3,2,1-ij]quinoline-2-carboxylic acid methyl ester] | ≤ 0.031 µg/mL | – |
| O=C1COc2ccc(N3C[C@@H](CCCNC4Cn5c(=O)ccc6ccc(F)c4c65)OC3=O)nc2N1 (mixture of isomers) [Example 70, (RS)-9-fluoro-1-{3-[(R)-2-oxo-3-(3-oxo-3,4-dihydro-2H-pyrido[3,2-b][1,4]oxazin-6-yl)-oxazolidin-5-yl]-propylamino}-1,2-dihydro-pyrrolo[3,2,1-ij]quinolin-4-one] | ≤ 0.031 µg/mL | – |
| O=C1O[C@H](CNCC2Cn3c(=O)ccc4ccc(F)c2c43)CN1c1ccc2c(c1)OCCO2 (mixture of isomers) [Example 31, (1RS)-1-({[(R)-3-(2,3-dihydro-benzo[1,4]dioxin-6-yl)-2-oxo-oxazolidin-5-ylmethyl]-amino}-methyl)-9-fluoro-1,2-dihydro-pyrrolo[3,2,1-ij]quinolin-4-one] | 16 µg/mL | – |
| O=C1CSc2ccc(N3C[C@H](CNCC4Cn5c(=O)cnc6cccc4c65)OC3=O)cc2N1 (mixture of isomers) [Example 106, (RS)-6-({[(S)-2-oxo-3-(3-oxo-3,4-dihydro-2H-benzo[1,4]thiazin-6-yl)-oxazolidin-5-ylmethyl]-amino}-methyl)-5,6-dihydro-pyrrolo[1,2,3-de]quinoxalin-3-one] | ≤ 0.031 µg/mL | – |
| O=C1COc2ccc(N3C[C@@H](CCNC[C@@H]4Cn5c(=O)ccc6ccc(F)c4c65)OC3=O)nc2N1 (racemic) [Example 47, (RS)-9-fluoro-1-({2-[(RS)-2-oxo-3-(3-oxo-3,4-dihydro-2H-pyrido[3,2-b][1,4]oxazin-6-yl)-oxazolidin-5-yl]-ethylamino}-methyl)-1,2-dihydro-pyrrolo[3,2,1-ij]quinolin-4-one] | ≤ 0.031 µg/mL | – |
| O=C1COc2ccc(N3C[C@@H](CCCN(CCO)[C@@H]4Cn5c(=O)cnc6ccc(F)c4c65)OC3=O)cc2N1 [Example 67, (S)-7-fluoro-6-((2-hydroxy-ethyl)-{3-[(R)-2-oxo-3-(3-oxo-3,4-dihydro-2H-benzo[1,4]oxazin-6-yl)-oxazolidin-5-yl]-propyl}-amino)-5,6-dihydro-pyrrolo[1,2,3-de]quinoxalin-3-one] | ≤ 0.063 µg/mL | – |
| O=C1CSc2ccc(N3C[C@H](CCCN[C@@H]4Cn5c(=O)cnc6ccc(F)c4c65)OC3=O)cc2N1 [Example 79, (S)-7-fluoro-6-{3-[(S)-2-oxo-3-(3-oxo-3,4-dihydro-2H-benzo[1,4]thiazin-6-yl)-oxazolidin-5-yl]-propylamino}-5,6-dihydro-pyrrolo[1,2,3-de]quinoxalin-3-one] | ≤ 0.031 µg/mL | – |
| O=C1COc2ccc(N3C[C@@H](CCCN[C@@H]4Cn5c(=O)ccc6cccc4c65)OC3=O)nc2N1 [Example 74, (S)-1-{3-[(R)-2-oxo-3-(3-oxo-3,4-dihydro-2H-pyrido[3,2-b][1,4]oxazin-6-yl)-oxazolidin-5-yl]-propylamino}-1,2-dihydro-pyrrolo[3,2,1-ij]quinolin-4-one] | ≤ 0.031 µg/mL | – |
| O=C1CSc2ccc(N3C[C@@H](CNCC4Cn5c(=O)ccc6cccc4c65)OC3=O)cc2N1 (mixture of isomers) [Example 63, (RS)-1-({[(R)-2-oxo-3-(3-oxo-3,4-dihydro-2H-benzo[1,4]thiazin-6-yl)-oxazolidin-5-ylmethyl]-amino}-methyl)-1,2-dihydro-pyrrolo[3,2,1-ij]quinolin-4-one] | 0.031 µg/mL | – |
| (1R,2R)-2-(1-hydroxy-1-methyl-ethyl)-1-{3-[(R)-2-oxo-3-(3-oxo-3,4-dihydro-2H-benzo[1,4]thiazin-6-yl)-oxazolidin-5-yl]-propylamino}-1,2-dihydro-pyrrolo[3,2,1-ij]quinolin-4-one and (1S,2S)-2-(1-hydroxy-1-methyl-ethyl)-1-{3-[(R)-2-oxo-3-(3-oxo-3,4-dihydro-2H-benzo[1,4]thiazin-6-yl)-oxazolidin-5-yl]-propylamino}-1,2-dihydro-pyrrolo[3,2,1-ij]quinolin-4-one [Example 170] | – | 0.25 µg/mL |
| O=C1O[C@H](CCNC[C@@H]2Cn3c(=O)ccc4ccc(F)c2c43)CN1c1ccc2c(n1)OCCO2 (racemic) [Example 43, (RS)-1-({2-[(RS)-3-(2,3-dihydro-[1,4]dioxino[2,3-b]pyridin-6-yl)-2-oxo-oxazolidin-5-yl]-ethylamino}-methyl)-9-fluoro-1,2-dihydro-pyrrolo[3,2,1-ij]quinolin-4-one] | 1 µg/mL (≈ 2.14 µM) | – |
| CCOc1ccc(N2C[C@@H](CCNCC3Cn4c(=O)ccc5ccc(F)c3c54)OC2=O)cc1 (mixture of isomers) [Example 44, (RS)-1-({2-[(R)-3-(4-ethoxy-phenyl)-2-oxo-oxazolidin-5-yl]-ethylamino}-methyl)-9-fluoro-1,2-dihydro-pyrrolo[3,2,1-ij]quinolin-4-one] | 0.125 µg/mL | – |
| (1R,2R)-4-oxo-1-{3-[(R)-2-oxo-3-(3-oxo-3,4-dihydro-2H-benzo[1,4]thiazin-6-yl)-oxazolidin-5-yl]-propylamino}-1,2-dihydro-4H-pyrrolo[3,2,1-ij]quinoline-2-carboxylic acid methyl ester and (1S,2S)-4-oxo-1-{3-[(R)-2-oxo-3-(3-oxo-3,4-dihydro-2H-benzo[1,4]thiazin-6-yl)-oxazolidin-5-yl]-propylamino}-1,2-dihydro-4H-pyrrolo[3,2,1-ij]quinoline-2-carboxylic acid methyl ester [Example 161] | – | 0.125 µg/mL |
| O=C1COc2ccc(N3C[C@@H](CCCN[C@H]4Cn5c(=O)cnc6ccc(F)c4c65)OC3=O)cc2N1 [Example 104, (R)-7-fluoro-6-{3-[(R)-2-oxo-3-(3-oxo-3,4-dihydro-2H-benzo[1,4]oxazin-6-yl)-oxazolidin-5-yl]-propylamino}-5,6-dihydro-pyrrolo[1,2,3-de]quinoxalin-3-one] | ≤ 0.031 µg/mL | – |
| O=C1CSc2ccc(N3C[C@@H](CCCN[C@H]4Cn5c(=O)ccc6cccc4c65)OC3=O)cc2N1 [Example 109, (R)-1-{3-[(R)-2-oxo-3-(3-oxo-3,4-dihydro-2H-benzo[1,4]thiazin-6-yl)-oxazolidin-5-yl]-propylamino}-1,2-dihydro-pyrrolo[3,2,1-ij]quinolin-4-one] | ≤ 0.031 µg/mL | – |
| O=C1COc2ccc(N3C[C@H](CCNCC4Cn5c(=O)ccc6ncc(F)c4c65)OC3=O)cc2N1 (mixture of isomers) [Example 102, (RS)-3-fluoro-4-({2-[(S)-2-oxo-3-(3-oxo-3,4-dihydro-2H-benzo[1,4]oxazin-6-yl)-oxazolidin-5-yl]-ethylamino}-methyl)-4,5-dihydro-pyrrolo[3,2,1-de][1,5]naphthyridin-7-one] | ≤ 0.031 µg/mL | – |
| O=C1CSc2ccc(N3C[C@@H](CCCN[C@@H]4CN5C(=O)CNc6cccc4c65)OC3=O)cc2N1 [Example 114, (S)-6-{3-[(R)-2-oxo-3-(3-oxo-3,4-dihydro-2H-benzo[1,4]thiazin-6-yl)-oxazolidin-5-yl]-propylamino}-1,2,5,6-tetrahydro-pyrrolo[1,2,3-de]quinoxalin-3-one] | ≤ 0.031 µg/mL | – |
| O=C1CSc2ccc(N3C[C@@H](CCNC[C@H]4Cn5c(=O)ccc6nccc4c65)OC3=O)cc2N1 [Example 76, (S)-4-({2-[(R)-2-oxo-3-(3-oxo-3,4-dihydro-2H-benzo[1,4]thiazin-6-yl)-oxazolidin-5-yl]-ethylamino}-methyl)-4,5-dihydro-pyrrolo[3,2,1-de][1,5]naphthyridin-7-one] | ≤ 0.031 µg/mL | – |
| O=C1CSc2ccc(N3C[C@@H](CCCNC4CN5C(=O)CNc6ccc(F)c4c65)OC3=O)nc2N1 (mixture of isomers) [Example 200, (RS)-7-fluoro-6-{3-[(R)-2-oxo-3-(3-oxo-3,4-dihydro-2H-pyrido[3,2-b][1,4]thiazin-6-yl)-oxazolidin-5-yl]-propylamino}-1,2,5,6-tetrahydro-pyrrolo[1,2,3-de]quinoxalin-3-one] | ≤ 0.031 µg/mL | – |
| Cl.O=C1CSc2ccc(N3C[C@@H](CCCN[C@@H]4c5c(F)ccc6ccc(=O)n(c56)[C@H]4C(=O)O)OC3=O)cc2N1 (relative stereo) [Example 186, (1R*,2R*)-9-fluoro-4-oxo-1-{3-[(R)-2-oxo-3-(3-oxo-3,4-dihydro-2H-benzo[1,4]thiazin-6-yl)-oxazolidin-5-yl]-propylamino}-1,2-dihydro-4H-pyrrolo[3,2,1-ij]quinoline-2-carboxylic acid hydrochloride] | 0.5 µg/mL | – |
